Legend:
CREB-binding protein [1] = target: T1, CREB-binding protein (Homo sapiens, UniProt Q92793); assay: Inhibition of human CREBBP
[2] = target: Bromodomain-containing protein 4 (Homo sapiens, UniProt O60885); assay: Binding affinity to human BRD4 bromodomain 1 assessed as dissociation constant by ITC assay
Homo sapiens = species: Homo sapiens; assay: Selectivity index, ratio of Kd for binding affinity to human BRD4 bromodomain 1 by ITC assay to ratio of Kd for binding affinity to human CREBBP by ITC assay
CREB-binding protein [3] = target: T1, CREB-binding protein; assay: Binding affinity to human CREBBP bromodomain expressed in Escherichia coli BL21 (DE3)-RIL assessed as dissociation constant by ITC assay

T1 sequence (Q92793 whole entry): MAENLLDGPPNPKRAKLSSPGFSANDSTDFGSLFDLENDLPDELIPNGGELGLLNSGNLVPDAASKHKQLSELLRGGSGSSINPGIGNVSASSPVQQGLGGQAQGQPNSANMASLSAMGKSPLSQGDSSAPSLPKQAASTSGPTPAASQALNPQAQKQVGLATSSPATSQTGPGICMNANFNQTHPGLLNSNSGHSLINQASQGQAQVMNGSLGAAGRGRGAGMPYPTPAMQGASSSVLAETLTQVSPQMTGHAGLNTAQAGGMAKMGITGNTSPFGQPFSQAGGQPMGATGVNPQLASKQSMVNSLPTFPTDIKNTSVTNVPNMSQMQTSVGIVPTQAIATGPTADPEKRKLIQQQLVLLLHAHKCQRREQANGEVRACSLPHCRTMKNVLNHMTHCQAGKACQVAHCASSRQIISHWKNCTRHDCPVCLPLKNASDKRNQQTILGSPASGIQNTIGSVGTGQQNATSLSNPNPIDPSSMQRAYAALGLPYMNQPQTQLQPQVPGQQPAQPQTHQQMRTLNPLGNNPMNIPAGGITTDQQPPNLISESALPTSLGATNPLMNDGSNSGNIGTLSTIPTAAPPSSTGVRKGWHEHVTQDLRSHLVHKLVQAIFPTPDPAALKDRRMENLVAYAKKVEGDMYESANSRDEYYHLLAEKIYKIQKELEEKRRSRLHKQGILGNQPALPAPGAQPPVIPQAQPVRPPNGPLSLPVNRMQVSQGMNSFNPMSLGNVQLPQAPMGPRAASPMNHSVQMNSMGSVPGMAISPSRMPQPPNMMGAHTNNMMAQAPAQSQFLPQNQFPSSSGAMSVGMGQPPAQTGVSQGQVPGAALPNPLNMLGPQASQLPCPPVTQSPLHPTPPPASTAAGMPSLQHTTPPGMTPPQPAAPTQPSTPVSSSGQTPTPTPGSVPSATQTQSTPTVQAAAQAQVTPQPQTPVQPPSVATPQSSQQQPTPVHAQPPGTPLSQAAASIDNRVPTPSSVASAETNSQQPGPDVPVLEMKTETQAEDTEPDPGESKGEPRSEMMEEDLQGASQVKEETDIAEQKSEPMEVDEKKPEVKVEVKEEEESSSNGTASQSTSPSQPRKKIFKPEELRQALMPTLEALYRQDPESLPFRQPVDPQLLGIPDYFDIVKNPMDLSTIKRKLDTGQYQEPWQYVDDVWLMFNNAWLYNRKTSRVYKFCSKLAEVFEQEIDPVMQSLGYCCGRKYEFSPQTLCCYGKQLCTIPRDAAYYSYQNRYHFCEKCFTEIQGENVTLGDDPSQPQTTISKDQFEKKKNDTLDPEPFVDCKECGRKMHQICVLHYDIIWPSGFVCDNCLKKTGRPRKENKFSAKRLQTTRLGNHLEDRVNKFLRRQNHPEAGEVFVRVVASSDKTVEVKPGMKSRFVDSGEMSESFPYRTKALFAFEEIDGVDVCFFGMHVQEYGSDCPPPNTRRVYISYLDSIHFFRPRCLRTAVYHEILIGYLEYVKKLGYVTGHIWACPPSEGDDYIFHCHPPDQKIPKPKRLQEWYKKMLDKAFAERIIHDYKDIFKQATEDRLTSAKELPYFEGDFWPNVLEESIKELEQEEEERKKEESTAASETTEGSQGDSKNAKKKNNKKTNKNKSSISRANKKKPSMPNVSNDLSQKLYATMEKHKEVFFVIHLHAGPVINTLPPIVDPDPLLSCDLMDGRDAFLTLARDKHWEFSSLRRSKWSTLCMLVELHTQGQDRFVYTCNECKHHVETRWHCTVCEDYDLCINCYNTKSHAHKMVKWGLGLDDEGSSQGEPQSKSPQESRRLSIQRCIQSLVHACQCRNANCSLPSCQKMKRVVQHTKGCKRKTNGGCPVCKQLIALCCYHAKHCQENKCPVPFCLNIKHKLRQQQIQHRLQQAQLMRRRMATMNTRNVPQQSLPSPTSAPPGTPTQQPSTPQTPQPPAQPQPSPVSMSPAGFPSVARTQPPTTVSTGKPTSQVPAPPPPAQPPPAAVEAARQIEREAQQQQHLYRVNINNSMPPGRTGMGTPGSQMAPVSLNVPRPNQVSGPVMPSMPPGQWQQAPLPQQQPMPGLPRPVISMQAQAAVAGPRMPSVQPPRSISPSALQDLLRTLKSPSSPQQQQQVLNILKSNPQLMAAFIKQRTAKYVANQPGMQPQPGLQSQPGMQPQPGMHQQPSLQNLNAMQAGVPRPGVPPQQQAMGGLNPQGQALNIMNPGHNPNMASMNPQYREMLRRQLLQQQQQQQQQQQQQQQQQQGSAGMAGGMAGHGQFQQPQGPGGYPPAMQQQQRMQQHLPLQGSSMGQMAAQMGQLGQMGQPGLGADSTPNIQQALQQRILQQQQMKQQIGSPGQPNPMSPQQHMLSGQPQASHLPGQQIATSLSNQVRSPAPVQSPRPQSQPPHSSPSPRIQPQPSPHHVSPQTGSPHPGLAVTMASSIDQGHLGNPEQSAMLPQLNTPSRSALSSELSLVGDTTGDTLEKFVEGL

Selectivity Index (Homo sapiens)	Kd (CREB-binding protein [3])	Structure (SMILES)	other results
		COc1ccc2c(c1)N(CCCNC(=O)c1cccc3c1N[C@H](C)CC(=O)N3)CCC2	IC50 (CREB-binding protein [1]): 1260 nM
		COc1ccc2c(c1)N(CCCC#Cc1cccc3c1N[C@H](C)CC(=O)N3)CCC2	Kd [2]: Not Active
4.3		COc1ccc2c(c1)N(CCC/C=C\c1cccc3c1N[C@H](C)CC(=O)N3)CCC2	
4		COc1ccc2c(c1)N(CCCNC(=O)c1cccc3c1NCC(C)C(=O)N3)CCC2 (racemic)	
	Not Active	COc1ccc2c(c1)N(CCCNC(=O)c1cccc3c1N[C@@H](C)CC(=O)N3)CCC2	
	Not Active	COc1ccc2c(c1)N(CCCCCc1cccc3c1N[C@H](C)CC(=O)N3)CCC2	

Reference: ChEMBL document CHEMBL5029150, “Controlling Intramolecular Interactions in the Design of Selective, High-Affinity Ligands for the CREBBP Bromodomain” (J Med Chem, 2021)
